The source of these data is patent US10227357B2, “Compounds and methods for kinase modulation, and indications therefor” (Plexxikon Inc., priority 2012, dated 2019).

The structures appear in SMILES notation.

The assay deals with T1, c-kit mutant D816V (Homo sapiens, UniProt P10721, D816V/DEL694-753).
T1 construct: residues 551-934, kinase insertion domain residues 694-753 deleted; 6x-histidine (N); made in house; host or cells: E. coli Arctic Express (DE3) RIL (Stratagene)
Kind of assay: c-Kit mutant D816V biochemical assay, AlphaScreen. The following applies: c-kit D816V biochemical inhibitory activity; read-out: Biochemical activity (IC50 μM) Kit D816V. The protocol: Compounds to be tested were dissolved in DMSO to a concentration of 20 mM. These were diluted 30 μl into 120 μl of DMSO (4 mM) and 1 μl was added to an assay plate. These were then serially diluted 1:3 (50 μl to 100 μl DMSO) for a total of 8 points. Plates were prepared such that each kinase reaction is 20 μl in 1× kinase buffer (25 mM HEPES, pH 7.2, 8 mM MgCl2, 2 mM MnCl2, 50 mM NaCl, 0.01% Brij, 1 mM DTT, 0.01% BSA), 5% DMSO and 10 μM ATP. […] After incubation of the kinase reaction for 30 minutes at room temperature, 5 μl of donor beads (Streptavidin coated beads (Perkin Elmer Life Science) final concentration 7.5 μg/ml) in stop buffer (25 mM Hepes pH 7.5, 100 mM EDTA, 0.01% BSA) was added, the sample was mixed and incubated for 20 minutes at room temperature before adding 5 μl of acceptor beads (PY20 coated beads (Perkin Elmer Life Science) final concentration 7.5 μg/ml) in stop buffer. The samples were incubated for 60 minutes at room temperature and the signal per well was read on EnVision reader. […] The signal vs. compound concentration was used to determine the IC50.
Cells were grown in Terrific Broth (TB) media to an OD600 of 0.6 at 37° C. at which temperature was reduced to 10° C., protein was induced with 1.0 mM IPTG for 18 hours and harvested by centrifugation at 8000×g for 20 minutes. Cells were re-suspended in 0.1M KPO4 pH 8.0, 250 mM NaCl, 10% Glycerol, 0.75% NP-40, 25 mM Imidazole, 5 mM BME with 0.2 mg/ml Lysosyme, 2.0 mM PMSF, 25 μg/ml DNAse I, incubated in ice for 30 minutes and lysed with a cell disruptor (MicroFluidics). The lysate was clarified by centrifugation at 20,000×g for 2 hours. The protein was captured with Talon resin (Clontech). Contaminating proteins were washed off with 25 mM Tris-HCl pH 8.3, 250 mM NaCl, 15% Glycerol, 1% Triton X-100, and protein eluted using 100 mM EDTA. The protein was further purified using Gel Filtration column 26/600 Superdex 200 (GE) in 50 mM Tris-HCl, pH 8.0, 250 mM NaCl, 15% Glycerol, 5 mM BME. The protein was aliquoted and flash-frozen in liquid Nitrogen.
On the technique in general: Bead proximity is the source of the signal in Alpha formats.

T1 sequence (P10721 with tags, fused parts or gaps DEL694-753/D816V): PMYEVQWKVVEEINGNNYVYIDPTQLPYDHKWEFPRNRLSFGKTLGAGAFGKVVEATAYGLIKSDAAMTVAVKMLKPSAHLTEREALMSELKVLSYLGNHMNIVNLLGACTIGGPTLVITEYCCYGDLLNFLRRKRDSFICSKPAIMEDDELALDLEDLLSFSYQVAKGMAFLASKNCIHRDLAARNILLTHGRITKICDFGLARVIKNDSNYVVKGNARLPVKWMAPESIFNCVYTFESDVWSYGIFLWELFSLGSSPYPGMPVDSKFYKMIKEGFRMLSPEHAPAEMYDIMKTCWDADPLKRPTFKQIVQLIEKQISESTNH

`COc1cc2ncnc(-c3ccc(NS(=O)(=O)N4CCCC4)c(F)c3)c2cc1OC` [P-0274, N-[4-(6,7-dimethoxyquinazolin-4-yl)-2-fluoro-phenyl]pyrrolidine-1-sulfonamide]: the IC50 (commonly the midpoint of a concentration-inhibition curve) was 1 to 10 µM. For `CCCS(=O)(=O)Nc1ccc(-c2ncnc3cc(OC)c(OC)cc23)cc1F` [P-0275, N-[4-(6,7-dimethoxyquinazolin-4-yl)-2-fluoro-phenyl]propane-1-sulfonamide], the IC50 was in the range of 1 to 10 µM. With `Cc1cc2c(-c3ccc(NS(=O)(=O)c4ccc(C(C)C)cc4)cc3)ncnc2[nH]1` [P-0306, 4-isopropyl-N-[4-(6-methyl-7H-pyrrolo[2,3-d]pyrimidin-4-yl)phenyl]benzenesulfonamide] the figure was 1 to 10 µM.

For the compound `Cc1cc2c(-c3ccc(NS(=O)(=O)c4ccc(C(F)(F)F)cn4)cc3)ncnc2[nH]1` [P-0312, N-[4-(6-methyl-7H-pyrrolo[2,3-d]pyrimidin-4-yl)phenyl]-5-(trifluoromethyl)pyridine-2-sulfonamide], the IC50 lay within 1 to 10 µM. Take `Cc1cc2c(-c3ccc(NS(=O)(=O)c4ccc(Cl)c(Cl)c4)cc3)ncnc2[nH]1` [P-0316, 3,4-dichloro-N-[4-(6-methyl-7H-pyrrolo[2,3-d]pyrimidin-4-yl)phenyl]benzenesulfonamide]: the IC50 was in the range of 1 to 10 µM.

On to `O=S(=O)(Nc1ccc(-c2ncnc3[nH]c(-c4ccc(F)cc4F)cc23)c(F)c1)c1ccc(F)cc1` [P-0332, N-[4-[6-(2,4-difluorophenyl)-7H-pyrrolo[2,3-d]pyrimidin-4-yl]-3-fluoro-phenyl]-4-fluoro-benzenesulfonamide], for which the 50% inhibitory concentration (IC50) lay within 0.0001 to 1 µM. Next, `Nc1ccc(-c2ncnc3[nH]c(-c4ccc(F)cc4F)cc23)c(F)c1` [P-0341, 4-[6-(2,4-difluorophenyl)-7H-pyrrolo[2,3-d]pyrimidin-4-yl]-3-fluoro-aniline]: 0.0001 to 1 µM; `CS(=O)(=O)Nc1ccccc1-c1ncnc2[nH]c(-c3ccc(F)cc3)cc12` [P-0375, N-[2-[6-(4-fluorophenyl)-7H-pyrrolo[2,3-d]pyrimidin-4-yl]phenyl]methanesulfonamide]: 10 to 200 µM.

In the case of `NS(=O)(=O)c1ccc(-c2ncnc3[nH]c(-c4ccc(F)cc4)cc23)c(F)c1` [P-0376, 3-fluoro-4-[6-(4-fluorophenyl)-7H-pyrrolo[2,3-d]pyrimidin-4-yl]benzenesulfonamide], the IC50 is 0.0001 to 1 µM. Take `Cc1cc2c(-c3ccc(S(=O)(=O)NC4CC4)cc3)ncnc2[nH]1` [P-0380, N-cyclopropyl-4-(6-methyl-7H-pyrrolo[2,3-d]pyrimidin-4-yl)benzenesulfonamide]: the IC50 was in the range of 10 to 200 µM. As for `O=S(=O)(Nc1cccc(-c2ncnc3[nH]c(-c4cnc(C5CC5)nc4)cc23)c1)C1CC1` [P-0383, N-[3-[6-(2-cyclopropylpyrimidin-5-yl)-7H-pyrrolo[2,3-d]pyrimidin-4-yl]phenyl]cyclopropanesulfonamide], the IC50 lay within 10 to 200 µM.

Consider `c1nc(-c2cnc(C3CC3)nc2)c2cc(-c3cnc(C4CC4)nc3)[nH]c2n1` [P-0384, 4,6-bis(2-cyclopropylpyrimidin-5-yl)-7H-pyrrolo[2,3-d]pyrimidine], for which the IC50 was in the range of 10 to 200 µM. As to `NS(=O)(=O)c1ccc(-c2ncnc3[nH]c(-c4cnc(C5CC5)nc4)cc23)cc1` [P-0385, 4-[6-(2-cyclopropylpyrimidin-5-yl)-7H-pyrrolo[2,3-d]pyrimidin-4-yl]benzenesulfonamide], the 50% inhibitory concentration (IC50) fell in the range of 1 to 10 µM. On to `O=S(=O)(Nc1ccc(-c2ncnc3[nH]c(-c4ccc(F)cc4)cc23)c(F)c1)N1CCCC1` [P-0400, N-[3-fluoro-4-[6-(4-fluorophenyl)-7H-pyrrolo[2,3-d]pyrimidin-4-yl]phenyl]pyrrolidine-1-sulfonamide], for which the IC50 is 1 to 10 µM.

With `O=S(=O)(Nc1ccc(-c2ncnc3[nH]c(-c4ccc(F)cc4)cc23)cc1F)N1CCCC1` [P-0405, N-[2-fluoro-4-[6-(4-fluorophenyl)-7H-pyrrolo[2,3-d]pyrimidin-4-yl]phenyl]pyrrolidine-1-sulfonamide], the IC50 lay in the range of 10 to 200 µM.

In the case of `O=S(=O)(Nc1ccc(-c2ncnc3[nH]c(-c4ccc(F)cc4)cc23)cc1)N1CCCC1` [P-0411, N-[4-[6-(4-fluorophenyl)-7H-pyrrolo[2,3-d]pyrimidin-4-yl]phenyl]pyrrolidine-1-sulfonamide], the IC50 fell in the range of 1 to 10 µM. Consider `CCNc1ccc(-c2ncnc3[nH]c(-c4ccc(F)cc4)cc23)cn1` [P-0417, N-ethyl-5-[6-(4-fluorophenyl)-7H-pyrrolo[2,3-d]pyrimidin-4-yl]pyridin-2-amine], for which the IC50 was in the range of 1 to 10 µM. Consider `CCNS(=O)(=O)c1ccc(-c2ncnc3[nH]c(-c4ccc(F)cc4)cc23)cc1` [P-0422, N-ethyl-4-[6-(4-fluorophenyl)-7H-pyrrolo[2,3-d]pyrimidin-4-yl]benzenesulfonamide], for which the IC50 was in the range of 10 to 200 µM. Turning to `O=S(=O)(Nc1ccc(F)cc1)c1ccc(-c2ncnc3[nH]c(-c4ccc(F)cc4)cc23)cc1` [P-0428, N-(4-fluorophenyl)-4-[6-(4-fluorophenyl)-7H-pyrrolo[2,3-d]pyrimidin-4-yl]benzenesulfonamide], the IC50 lay within 0.0001 to 1 µM. `Cc1ccc(S(=O)(=O)Nc2cccc(-c3ncnc4[nH]c(-c5ccc(F)cc5)cc34)c2)cc1` [P-0435, N-[3-[6-(4-fluorophenyl)-7H-pyrrolo[2,3-d]pyrimidin-4-yl]phenyl]-4-methyl-benzenesulfonamide]: the IC50 was 10 to 200 µM. With `Cc1csc(S(=O)(=O)NC2CCN(c3ncnc4[nH]c(-c5cnn(C)c5)cc34)CC2)c1` [P-0453, 4-methyl-N-[1-[6-(1-methylpyrazol-4-yl)-7H-pyrrolo[2,3-d]pyrimidin-4-yl]-4-piperidyl]thiophene-2-sulfonamide] the figure was 0.0001 to 1 µM; with `Cn1cc(-c2cc3c(N4CCC(NS(=O)(=O)c5ccc6c(c5)OCO6)CC4)ncnc3[nH]2)cn1` [P-0456, N-[1-[6-(1-methylpyrazol-4-yl)-7H-pyrrolo[2,3-d]pyrimidin-4-yl]-4-piperidyl]-1,3-benzodioxole-5-sulfonamide], 0.0001 to 1 µM; with `Cc1ncc(-c2cc3c(N4CCC(NS(=O)(=O)c5ccc(OC(F)(F)F)cc5)CC4)ncnc3[nH]2)s1` [P-0463, N-[1-[6-(2-methylthiazol-5-yl)-7H-pyrrolo[2,3-d]pyrimidin-4-yl]-4-piperidyl]-4-(trifluoromethoxy)benzenesulfonamide], 10 to 200 µM. On to `O=S(=O)(NC1CCN(c2ncnc3[nH]c(-c4ccc(Cl)cc4)cc23)CC1)c1cc2ccccc2s1` [P-0467, N-[1-[6-(4-chlorophenyl)-7H-pyrrolo[2,3-d]pyrimidin-4-yl]-4-piperidyl]benzothiophene-2-sulfonamide], for which the IC50 is 1 to 10 µM.

In the case of `CC(C)Oc1ccc(S(=O)(=O)NC2CCN(c3ncnc4[nH]c(-c5ccc(Cl)cc5)cc34)CC2)cc1` [P-0468, N-[1-[6-(4-chlorophenyl)-7H-pyrrolo[2,3-d]pyrimidin-4-yl]-4-piperidyl]-4-isopropoxy-benzenesulfonamide], the IC50 is 0.0001 to 1 µM.

Turning to `CN(C)S(=O)(=O)NC1CCN(c2ncnc3[nH]c(-c4cnn(C)c4)cc23)CC1` [P-0469, 4-[4-(dimethylsulfamoylamino)-1-piperidyl]-6-(1-methylpyrazol-4-yl)-7H-pyrrolo[2,3-d]pyrimidine], the IC50 lay in the range of 0.0001 to 1 µM.

As to `O=S(=O)(NC1CCN(c2ncnc3[nH]c(C#CC4CC4)cc23)CC1)c1ccc(Cl)cc1` [P-0471, 4-chloro-N-[1-[6-(2-cyclopropylethynyl)-7H-pyrrolo[2,3-d]pyrimidin-4-yl]-4-piperidyl]benzenesulfonamide], the IC50 was 10 to 200 µM. With `O=S(=O)(NC1CCN(c2ncnc3[nH]c(-c4ccc(Cl)cc4)cc23)CC1)c1cccc(Cl)c1` [P-0480, 3-chloro-N-[1-[6-(4-chlorophenyl)-7H-pyrrolo[2,3-d]pyrimidin-4-yl]-4-piperidyl]benzenesulfonamide], the IC50 fell in the range of 1 to 10 µM. `O=S(=O)(NC1CCN(c2ncnc3[nH]c(-c4ccc(Cl)cc4)cc23)CC1)c1ccc(F)cc1` [P-0481, N-[1-[6-(4-chlorophenyl)-7H-pyrrolo[2,3-d]pyrimidin-4-yl]-4-piperidyl]-4-fluoro-benzenesulfonamide]: the IC50 was 10 to 200 µM.

Take `Cn1cc(-c2cc3c(N4CCC(NS(=O)(=O)c5ccc(N6CCCC6=O)cc5)CC4)ncnc3[nH]2)cn1` [P-0483, N-[1-[6-(1-methylpyrazol-4-yl)-7H-pyrrolo[2,3-d]pyrimidin-4-yl]-4-piperidyl]-4-(2-oxopyrrolidin-1-yl)benzenesulfonamide]: the IC50 lay in the range of 0.0001 to 1 µM.
